Measurements reported in patent US9771369B2, “Compounds and methods for kinase modulation, and indications therefor” (Plexxikon Inc., priority 2014, dated 2017).

Legend:
c-kit mutant D816V = c-kit mutant D816V (Homo sapiens (Human), UniProt P10721, D816V/DEL694-753); assay: c-Kit mutant D816V biochemical assay (AlphaScreen kinase activity)
In short: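 AlphaScreen with streptavidin donor and PY30 acceptor beads read phosphotyrosine on biotin-(E4Y)10 substrate (30 nM). Enzyme: E. coli-expressed N-His c-Kit D816V, residues 551-934 lacking kinase insert 694-753. Reaction 30 min at room temperature, 10 μM ATP, 5% DMSO; IC50 fitted over 8 three-fold dilutions.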

[1] = test system: BaF3-FL KIT D816V or BaF3-FL KIT V560G/D816V cell line; assay: Cell-based assays of c-Kit mutant kinase activity (cell proliferation, ATPlite); settings: at least one of the c-kit cell assays of Example 7
In short: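 BaF3 cells dependent on transfected full-length human KIT D816V or V560G/D816V (pCI-Neo, CMV promoter) were seeded at 1×10^4 cells/well and exposed to 8-point 1:3 dilutions from 10 μM top (0.2% DMSO) for three days at 37° C. ATPlite luminescence gave cell number; IC50 from concentration-response.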

Chain of c-kit mutant D816V (P10721 other isoform, or with tags, fused parts or gaps D816V/del 694-753): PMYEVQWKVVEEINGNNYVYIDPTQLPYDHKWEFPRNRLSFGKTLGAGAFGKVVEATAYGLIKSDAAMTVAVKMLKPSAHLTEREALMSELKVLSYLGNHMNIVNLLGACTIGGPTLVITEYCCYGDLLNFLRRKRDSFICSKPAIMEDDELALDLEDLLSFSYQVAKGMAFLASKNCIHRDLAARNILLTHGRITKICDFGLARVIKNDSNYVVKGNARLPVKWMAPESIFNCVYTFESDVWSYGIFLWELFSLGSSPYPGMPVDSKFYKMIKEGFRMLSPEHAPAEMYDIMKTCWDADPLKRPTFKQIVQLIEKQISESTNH

Question: For `COc1ccc(-c2[nH]c(C3CCN(c4ncnc5[nH]c(-c6ccc(C#N)cc6)cc45)CC3)nc2C)cc1C` [P-3030, 4-[4-[4-[5-(4-methoxy-3-methyl-phenyl)-4-methyl-1H-imidazol-2-yl]-1-piperidyl]-7H-pyrrolo[2,3-d]pyrimidin-6-yl]benzonitrile], which IC50 (c-kit mutant D816V) is on record?
Answer: 0.0001 to 1 µM

Question: And the IC50 [1]?
Answer: < 10000 nM

Question: `COc1cc(-c2cc3c(N4CCC(c5nc(C)c(-c6ccc(Cl)cc6)[nH]5)CC4)ncnc3[nH]2)ccn1` [P-3037, 4-[4-[5-(4-chlorophenyl)-4-methyl-1H-imidazol-2-yl]-1-piperidyl]-6-(2-methoxy-4-pyridyl)-7H-pyrrolo[2,3-d]pyrimidine] was tested. Which IC50 (c-kit mutant D816V) did it give?
Answer: 0.0001 to 1 µM

Question: And the IC50 [1]?
Answer: < 10000 nM

Question: `Cc1ccc(-c2[nH]c(C3CCN(c4ncnc5[nH]c(-c6ccc(F)cc6)cc45)CC3)nc2C)cc1` [P-3062, 6-(4-fluorophenyl)-4-[4-[4-methyl-5-(p-tolyl)-1H-imidazol-2-yl]-1-piperidyl]-7H-pyrrolo[2,3-d]pyrimidine] was tested. Which IC50 (c-kit mutant D816V) did it give?
Answer: 0.0001 to 1 µM

Question: What about the IC50 [1] of the same molecule?
Answer: < 10000 nM

Question: With `CCc1ccc(-c2[nH]c(C3CCN(c4ncnc5[nH]c(-c6ccc(C#N)cc6)cc45)CC3)nc2C)cc1` [P-3061, 4-[4-[4-[5-(4-ethylphenyl)-4-methyl-1H-imidazol-2-yl]-1-piperidyl]-7H-pyrrolo[2,3-d]pyrimidin-6-yl]benzonitrile] as the molecule, how does the IC50 (c-kit mutant D816V) read?
Answer: 0.0001 to 1 µM

Question: What about the IC50 [1] of the same molecule?
Answer: < 10000 nM

Question: `Cc1nc(C2CCN(c3ncnc4[nH]c(-c5ccc(C#N)cc5)cc34)CC2)[nH]c1-c1ccccc1` [P-3047, 4-[4-[4-(4-methyl-5-phenyl-1H-imidazol-2-yl)-1-piperidyl]-7H-pyrrolo[2,3-d]pyrimidin-6-yl]benzonitrile] was tested. Which IC50 (c-kit mutant D816V) did it give?
Answer: 0.0001 to 1 µM

Question: What about the IC50 [1] of the same molecule?
Answer: < 10000 nM

Question: For `CCC1(c2nc(C)c(-c3ccc(OC)c(C)c3)[nH]2)CCN(c2ncnc3[nH]c(-c4ccc(F)cc4)cc23)CC1` [P-3056, 4-[4-ethyl-4-[5-(4-methoxy-3-methyl-phenyl)-4-methyl-1H-imidazol-2-yl]-1-piperidyl]-6-(4-fluorophenyl)-7H-pyrrolo[2,3-d]pyrimidine], which IC50 (c-kit mutant D816V) is on record?
Answer: 0.0001 to 1 µM

Question: And the IC50 [1]?
Answer: < 10000 nM

Question: For `Cc1nc(C2CCN(c3ncnc4[nH]c(-c5cnn(C)c5)cc34)CC2)[nH]c1-c1ccccc1` [P-3046, 4-[4-(4-methyl-5-phenyl-1H-imidazol-2-yl)-1-piperidyl]-6-(1-methylpyrazol-4-yl)-7H-pyrrolo[2,3-d]pyrimidine], which IC50 (c-kit mutant D816V) is on record?
Answer: 0.0001 to 1 µM

Question: And the IC50 [1]?
Answer: < 10000 nM

Question: What does the source list for `CNC(=O)c1cccc(-c2cc3c(N4CCC(c5nc(C)c(-c6ccccc6)[nH]5)CC4)ncnc3[nH]2)c1` [P-3049, N-methyl-3-[4-[4-(4-methyl-5-phenyl-1H-imidazol-2-yl)-1-piperidyl]-7H-pyrrolo[2,3-d]pyrimidin-6-yl]benzamide]?
Answer: IC50 (c-kit mutant D816V): 0.0001 to 1 µM; IC50 [1]: < 10000 nM

Question: With `CCC1(c2nc(C)c(-c3ccc(OC)cc3)[nH]2)CCN(c2ncnc3[nH]c(-c4ccc(F)cc4)cc23)CC1` [P-3055, 4-[4-ethyl-4-[5-(4-methoxyphenyl)-4-methyl-1H-imidazol-2-yl]-1-piperidyl]-6-(4-fluorophenyl)-7H-pyrrolo[2,3-d]pyrimidine] as the molecule, how does the IC50 (c-kit mutant D816V) read?
Answer: 0.0001 to 1 µM

Question: And the IC50 [1]?
Answer: < 10000 nM

Question: What does the source list for `Cc1cc2c(N3CCC(C)(c4nc(C)c(-c5ccc(F)cc5)[nH]4)CC3)ncnc2[nH]1` [P-3064, 4-[4-[5-(4-fluorophenyl)-4-methyl-1H-imidazol-2-yl]-4-methyl-1-piperidyl]-6-methyl-7H-pyrrolo[2,3-d]pyrimidine]?
Answer: IC50 (c-kit mutant D816V): 0.0001 to 1 µM; IC50 [1]: < 10000 nM

Question: For `CCOc1ccc(-c2[nH]c(C3CCN(c4ncnc5[nH]c(-c6ccc(F)cc6)cc45)CC3)nc2C)cc1C` [P-3065, 4-[4-[5-(4-ethoxy-3-methyl-phenyl)-4-methyl-1H-imidazol-2-yl]-1-piperidyl]-6-(4-fluorophenyl)-7H-pyrrolo[2,3-d]pyrimidine], which IC50 (c-kit mutant D816V) is on record?
Answer: 0.0001 to 1 µM

Question: And the IC50 [1]?
Answer: < 10000 nM

Question: With `CC(=O)Nc1cccc(-c2cc3c(N4CCC(c5nc(C)c(-c6ccccc6)[nH]5)CC4)ncnc3[nH]2)c1` [P-3071, N-[3-[4-[4-(4-methyl-5-phenyl-1H-imidazol-2-yl)-1-piperidyl]-7H-pyrrolo[2,3-d]pyrimidin-6-yl]phenyl]acetamide] as the molecule, how does the IC50 (c-kit mutant D816V) read?
Answer: 0.0001 to 1 µM

Question: And the IC50 [1]?
Answer: < 10000 nM

Question: What does the source list for `CCOc1ccc(-c2[nH]c(C3(C)CCN(c4ncnc5[nH]c(-c6ccc(C#N)nc6)cc45)CC3)nc2C)cc1` [P-3251, 5-[4-[4-[5-(4-ethoxyphenyl)-4-methyl-1H-imidazol-2-yl]-4-methyl-1-piperidyl]-7H-pyrrolo[2,3-d]pyrimidin-6-yl]pyridine-2-carbonitrile]?
Answer: IC50 (c-kit mutant D816V): 0.0001 to 1 µM; IC50 [1]: < 10000 nM

Question: How did the IC50 (c-kit mutant D816V) turn out when `Cc1cc2c(N3CCC(c4nc(C)c(-c5ccccc5)[nH]4)CC3)ncnc2[nH]1` [P-3004, 6-methyl-4-[4-(4-methyl-5-phenyl-1H-imidazol-2-yl)-1-piperidyl]-7H-pyrrolo[2,3-d]pyrimidine] was run?
Answer: 1 to 10 µM

Question: What about the IC50 [1] of the same molecule?
Answer: < 10000 nM

Question: How did the IC50 (c-kit mutant D816V) turn out when `COc1cc(-c2cc3c(N4CCC(c5nc(C)c(-c6ccccc6)[nH]5)CC4)ncnc3[nH]2)ccn1` [P-3003, 6-(2-methoxy-4-pyridyl)-4-[4-(4-methyl-5-phenyl-1H-imidazol-2-yl)-1-piperidyl]-7H-pyrrolo[2,3-d]pyrimidine] was run?
Answer: 0.0001 to 1 µM

Question: What about the IC50 [1] of the same molecule?
Answer: < 10000 nM

Question: With `CCOc1cccc(-c2[nH]c(C3CCN(c4ncnc5[nH]c(-c6ccnc(OC)c6)cc45)CC3)nc2C)c1` [P-3034, 4-[4-[5-(3-ethoxyphenyl)-4-methyl-1H-imidazol-2-yl]-1-piperidyl]-6-(2-methoxy-4-pyridyl)-7H-pyrrolo[2,3-d]pyrimidine] as the molecule, how does the IC50 (c-kit mutant D816V) read?
Answer: 0.0001 to 1 µM

Question: What about the IC50 [1] of the same molecule?
Answer: < 10000 nM

Question: What does the source list for `CCOc1ccc(-c2[nH]c(C3CCN(c4ncnc5[nH]c(-c6ccc(C#N)cc6)cc45)CC3)nc2C)cc1` [P-3027, 4-[4-[4-[5-(4-ethoxyphenyl)-4-methyl-1H-imidazol-2-yl]-1-piperidyl]-7H-pyrrolo[2,3-d]pyrimidin-6-yl]benzonitrile]?
Answer: IC50 (c-kit mutant D816V): 0.0001 to 1 µM; IC50 [1]: < 10000 nM

Question: How did the IC50 (c-kit mutant D816V) turn out when `Cc1nc(C2(C)CCN(c3ncnc4[nH]c(-c5ccc(NS(C)(=O)=O)cc5)cc34)CC2)[nH]c1-c1ccc(OC(F)F)cc1` [P-3254, N-[4-[4-[4-[5-[4-(difluoromethoxy)phenyl]-4-methyl-1H-imidazol-2-yl]-4-methyl-1-piperidyl]-7H-pyrrolo[2,3-d]pyrimidin-6-yl]phenyl]methanesulfonamide] was run?
Answer: 0.0001 to 1 µM

Question: And the IC50 [1]?
Answer: < 10000 nM

Question: For `COc1cccc(-c2[nH]c(C3CCN(c4ncnc5[nH]c(-c6ccc(C#N)cc6)cc45)CC3)nc2C)c1` [P-3021, 4-[4-[4-[5-(3-methoxyphenyl)-4-methyl-1H-imidazol-2-yl]-1-piperidyl]-7H-pyrrolo[2,3-d]pyrimidin-6-yl]benzonitrile], which IC50 (c-kit mutant D816V) is on record?
Answer: 0.0001 to 1 µM

Question: And the IC50 [1]?
Answer: < 10000 nM

Question: Which results are given for `COc1cc(-c2cc3c(N4CCC(c5nc(C)c(-c6ccc(OC(F)(F)F)cc6)[nH]5)CC4)ncnc3[nH]2)ccn1` [P-3087, 6-(2-methoxy-4-pyridyl)-4-[4-[4-methyl-5-[4-(trifluoromethoxy)phenyl]-1H-imidazol-2-yl]-1-piperidyl]-7H-pyrrolo[2,3-d]pyrimidine]?
Answer: IC50 (c-kit mutant D816V): 0.0001 to 1 µM; IC50 [1]: < 10000 nM

Question: What does the source list for `Cc1nc(C2CCN(c3ncnc4[nH]c(-c5ccc(C#N)cc5)cc34)CC2)[nH]c1-c1ccc(F)cc1` [P-3020, 4-[4-[4-[5-(4-fluorophenyl)-4-methyl-1H-imidazol-2-yl]-1-piperidyl]-7H-pyrrolo[2,3-d]pyrimidin-6-yl]benzonitrile]?
Answer: IC50 (c-kit mutant D816V): 0.0001 to 1 µM; IC50 [1]: < 10000 nM
